Experimental findings from patent US10221169B2, “Substituted aminothiazoles for the treatment of tuberculosis” (THE BROAD INSTITUTE, INC., priority 2013, dated 2019) are described below.

Structures are written as SMILES. In brackets after ≈: the same amount, converted by molar mass.

In one assay the test system is Replicating Mtb. The experiment in a line: microbe, parasite or virus in culture. It counts as cell-based, M. tuberculosis H37Rv. The note with it: log-phase Mtb; for IC90: Mycobacterium tuberculosis, 72 h, read-out: Replicating Mtb Log MIC IC90 (uM, GFP) (converted).
Assay [1] has as its system Non-replicating Mtb Carbon-starved. Briefly: Non-replicating carbon-starved Mtb IC99 by luciferase. It is filed as cell-based, M. tuberculosis H37Rv. The note with it: Mycobacterium tuberculosis, luciferase readout, 99% killing.
In a further assay the test system is M. tuberculosis. The experiment in a line: MIC of control anti-tuberculosis antibiotics. It is filed as cell-based. The following applies: Mycobacterium tuberculosis, MIC used as reference for 10× MIC.

Turning to `COc1ccc(Nc2nc(-c3ccccn3)cs2)c(OC)c1` [Compound 3], in the assay on Replicating Mtb, the IC90 is 8 µM.
For the molecule `CN(C)c1ccc(Nc2nc(-c3ccccn3)cs2)nc1` [Compound 6], in the assay with Replicating Mtb, the IC90 was 125 µM. The MIC in assay [1] turned out to be 8 µM (≈ 2.38 µg/mL).
For the molecule `Cc1ccc(-c2csc(Nc3ncccc3C)n2)cc1` [Compound 12], in the assay with Replicating Mtb, the IC90 was 125 µM.
On to `Cc1cccnc1Nc1nc(-c2ccncc2)cs1` [Compound 11], for which, in the assay with Replicating Mtb, the “Replicating Mtb Log MIC IC90 (uM, GFP)” value is on record as “None detected”.
With `c1ccc(Nc2nc(-c3ccccn3)cs2)nc1` [Compound 13], the IC90 in the assay on Replicating Mtb is 8 µM.
With `C/C(=N\Nc1nc(C)c(C)s1)c1ccc(Br)cc1` [Compound 15], the IC90 in the assay on Replicating Mtb was 62 µM. This molecule gave an MIC in assay [1] of 16 µM (≈ 5.19 µg/mL).
The like results for `COc1ccc(CCNc2nc(-c3ccccn3)cs2)cc1OC` [Compound 5] were, in that order, 62 µM and 8 µM (≈ 2.73 µg/mL).
With `Cc1ccccc1Nc1nc(-c2ccccn2)cs1` [Compound 9], the IC90 in the assay with Replicating Mtb is 62 µM. It took 8 µM (≈ 2.14 µg/mL) to inhibit growth in assay [1] (MIC).
For the molecule `Clc1ccc(Nc2nc(-c3ccccn3)cs2)nc1` [Compound 2], in the assay with Replicating Mtb, the IC90 was 2 µM. The minimal inhibitory concentration (MIC) in assay [1] worked out at 2 µM (≈ 0.578 µg/mL).
In the case of `Cc1cccnc1Nc1nc(-c2ccccn2)cs1` [Compound 1, N-(3-methylpyridin-2-yl)-4-(pyridin-2-yl)thiazol-2-amine], the IC90 in the assay with Replicating Mtb was 0.5 µM. For the same molecule, the MIC in assay [1] was found to be 1 µM (≈ 0.268 µg/mL).
Turning to `CO[C@H]1/C=C/O[C@@]2(C)Oc3c(C)c(O)c4c(O)c(c(/C=N/N5CCN(C)CC5)c(O)c4c3C2=O)NC(=O)/C(C)=C\C=C\[C@H](C)[C@H](O)[C@@H](C)[C@@H](O)[C@@H](C)[C@H](OC(C)=O)[C@@H]1C` [rifampin], the MIC with M. tuberculosis amounted to 0.01 µg/mL.
On to `Cc1cccnc1Nc1nc(-c2ccccn2)c(CN2CCOCC2)s1` [Compound 19, N-(3-methylpyridin-2-yl)-5-(morpholinomethyl)-4-(pyridin-2-yl)thiazol-2-amine], for which, in the assay on Replicating Mtb, the IC90 was 16 µM. The molecule further yielded a minimum inhibitory concentration (MIC) in assay [1] of 32 µM (≈ 11.8 µg/mL).
For the molecule `CCOC(=O)c1sc(Nc2ncccc2C)nc1-c1ccccn1` [Compound 18, ethyl 2-((3-methylpyridin-2-yl)amino)-4-(pyridin-2-yl)thiazole-5-carboxylate], the IC90 in the assay on Replicating Mtb was 4 µM. This molecule had an MIC in assay [1] of 8 µM (≈ 2.72 µg/mL).
Regarding `Cc1ccnc(Nc2nc(-c3ccccn3)cs2)c1` [Compound 14], the IC90 in the assay on Replicating Mtb was 16 µM.
For `Cc1cccnc1Nc1nc(-c2cccnc2)cs1` [Compound 10], the IC90 in the assay on Replicating Mtb is 125 µM.
In the case of `FC(F)(F)c1ccccc1Nc1nc(-c2ccccn2)cs1` [Compound 4], the IC90 in the assay with Replicating Mtb is 62 µM.
As to `O=C(O)COc1cccnc1Nc1nc(-c2ccccn2)cs1` [Compound 21, 2-((2-((4-(pyridin-2-yl)thiazol-2-yl)amtno)pyridin-3-yl)oxy)acetic acid], the IC90 with Replicating Mtb is 125 µM. This molecule gave an MIC in assay [1] greater than 125 µM.
In the case of `CC(C)(C)OC(=O)COc1cccnc1Nc1nc(-c2ccccn2)cs1` [Compound 20, tert-butyl 2-((2-((4-(pyridin-2-yl)thiazol-2-yl)amino)pyridin-3-yl)oxy)acetate], in assay [1], the MIC stood at 4 µM (≈ 1.54 µg/mL).
On to `Cc1cccnc1Nc1nc(-c2ccccn2)c(Br)s1` [Compound 17, 5-bromo-N-(3-methylpyridin-2-yl)-4-(pyridin-2-yl)thiazol-2-amine], for which the IC90 in the assay with Replicating Mtb was less than 1 µM. The MIC in assay [1] is less than 16 µM.

In general, IC90 refers to the point of the concentration-response curve where the effect stands at 90%. By MIC is commonly meant the least concentration at which growth counts as inhibited.
